From patent publication US5880158A, “Propionamide anticonvulsants” (Research Corporation Tech., Inc., priority 1997, dated 1999)

What was measured:
[1] = tested on: male albino Cartworth Farms No. 1 mice; test: maximal electroshock seizure (MES) test in mice; assay type: in vivo; conditions: intraperitoneal; for ED50: Mus musculus, ip, at time of peak effect, numbers in parentheses 95% confidence intervals
Experimental: (§1) Activity was established using the electrical (maximal electroshock or MES) test. In the MES test, a drop of electrolyte solution with anesthetic (0.5% butacaine hemisulfate in 0.9% sodium chloride) was used in the eyes of the animals prior to positioning the corneal electrodes and delivery of current. A 60 cycle alternating current was administered for 0.2 sec. at 50 mA. Protection endpoints were defined as the abolition of the hind limb tonic extensor component of the induced seizure. In mice, the effects of compounds on forced spontaneous motor activity were determined using the rotorod test. […] Normally under these conditions, a mouse can maintain its balance almost indefinitely. In the mouse identification screening study all compounds were given at three dose levels (30, 100, 300 mg/kg) and two time periods (0.5, 4h). Typically, in the MES seizures test one animal was used at 30 mg/kg and 300 mg/kg, and three animals at 100 mg/kg. In the rotorod toxicity test four animals were used at 30 mg/kg, and 300 mg/kg, and eight animals at 100 mg/kg. If activity was found at 30 mg/kg, then lower dosages were used to find the ED50 values.

[2] = rotorod test, neurologic toxicity in mice; assay type: in vivo; conditions: mouse, ip, intraperitoneal, at time of peak effect, numbers in parentheses 95% confidence intervals, read-out: Tox TD50
Experimental: as §1

[3] = tested on: male albino Cartworth Farms No. 1 mice; test: rotorod test, neurologic toxicity in mice; assay type: in vivo; conditions: intraperitoneal, at time of peak effect, numbers in parentheses 95% confidence intervals
Experimental: as §1

[4] = tested on: male albino Cartworth Farms No. 1 mice; test: protective index (TD50/ED50), rotorod versus MES in mice; conditions: for protective index (in words): compared with phenytoin, phenobarbital and valproate
Source text: Compounds were screened under the auspices of the National Institutes of Health for anticonvulsant activity in male albino Cartworth Farms No. 1 mice (ip route). Activity was established using the electrical (maximal electroshock or MES) test. In the MES test, a drop of electrolyte solution with anesthetic (0.5% butacaine hemisulfate in 0.9% sodium chloride) was used in the eyes of the animals prior to positioning the corneal electrodes and delivery of current. A 60 cycle alternating current was administered for 0.2 sec. at 50 mA. Protection endpoints were defined as the abolition of the hind limb tonic extensor component of the induced seizure. In mice, the effects of compounds on forced spontaneous motor activity were determined using the rotorod test. […] Normally under these conditions, a mouse can maintain its balance almost indefinitely. In the mouse identification screening study all compounds were given at three dose levels (30, 100, 300 mg/kg) and two time periods (0.5, 4h). Typically, in the MES seizures test one animal was used at 30 mg/kg and 300 mg/kg, and three animals at 100 mg/kg. In the rotorod toxicity test four animals were used at 30 mg/kg, and 300 mg/kg, and eight animals at 100 mg/kg.
The quantitative determination of the median effective (ED50) and toxic doses (TD50) were conducted at previously calculated times of peak effect. Groups of at least eight animals were tested using different doses of test compound until at least two points were determined between 100 and 0% protection and minimal motor impairment. The dose of candidate substance required to produce the defined endpoint in 50% of the animals in each test and the 95% confidence interval were calculated.

| SMILES | anticonvulsant activity / efficacy (in words) ([1]; MES) | TD50 [2] | ED50 [1] | Tox TD50 [3] | further results |
| --- | --- | --- | --- | --- | --- |
| O=C(NCc1ccccc1)C(O)CO (racemic) [R, S OH CH2 OH, N-Benzyl 2,3-Dihydroxypropionamide] | very low anticonvulsant activity | > 300 mg/kg | – | – | – |
| CCCC(CCC)C(=O)O [valproate] | – | – | 290 mg/kg | 480 mg/kg | – |
| CCC1(c2ccccc2)C(=O)NC(=O)NC1=O [phenobarbital] | – | – | 22 mg/kg | – | – |
| COCC(OC)C(=O)NCc1ccccc1 (stereo not shown) [R, S OCH3 CH2 OCH3, N-BENZYL 2,3-DIMETHOXY PROPIONAMIDE] | much greater efficacy | 280 mg/kg | 30 mg/kg | – | ED50, times more effective than that of the dihydroxy compound ([1]; MES, diether versus dihydroxy compound): greater than 3 times; protective index (in words) ([4]; listed as N-Benzyl 2,3-dimethyoxypropionamide): unexpectedly high protective index; protective index (in words) ([4]; listed as diether): significantly greater than the P.I. values of phenytoin, phenobarbital and valproate; P.I. (protective index, TD50/ED50) ([4]; intraperitoneal): 9.3; P.I., times more effective than that of the dihydroxy compound ([4]; intraperitoneal, diether versus dihydroxy compound): greater than 3 times |
| COC[C@@H](OC)C(=O)NCc1ccccc1 [R OCH3 CH2 OCH3, (R)-N-Benzyl-2,3-dimethoxypropionamide] | – | 300 mg/kg | – | – | – |
| O=C1NC(=O)C(c2ccccc2)(c2ccccc2)N1 [phenytoin] | – | – | 6.5 mg/kg | 43 mg/kg | – |
